Measurements: publication PMC5818482, “Experimental study of the anti-tumour activity and pharmacokinetics of arctigenin and its valine ester derivative” (Scientific Reports, 2018)
Values after ≈ are worked out from the molar mass of the structure shown. Values joined by “and” are separate entries in the source; they are usually repeats but may differ in a detail not shown here. Equal values may be shown once. Read-outs that look alike come from different tables or passages of the source.

Assays:
[1] = Solubility according to the Chinese Pharmacopoeia, 2015 edition; format: physicochemical; settings: for Solubility in Acetonitrile: solvent acetonitrile; for Solubility in Acetonitrile:water 45:55: solvent acetonitrile:water 45:55; for Solubility in Cloroform: solvent chloroform; for Solubility in Ethyl acetate: solvent ethyl acetate; for Solubility in Water: solvent water
Experimental: Solubility is a physical property of the drug. The reaction was performed according to the Chinese Pharmacopoeia, 2015 edition.

[2] = Nitrite scavenging activity, diazo coupling spectrophotometric method (in vitro anti-tumour experiment)
Excerpt: Numerous methods for nitrite clearance have been reported, such as spectrophotometric, chromatographic-mass spectrometric, electrochemical, and fluorescence methods. Considering various factors, we decided to use diazo coupling spectrophotometry to perform this experiment. […] On the other hand, it may be that ARG-V also has the ability to bind nitrite such that the nitrite content decreased, achieving the purpose of clearing nitrite.
Our team has studied the […] scavenging activity of ARG and ARG-V using diazo coupling spectrophotometric method.

[3] = tested on: H22 hepatocellular carcinoma; test: In vivo anti-tumour experiment in H22 tumour-bearing mice (tumour growth, body weight, immune organ indexes); settings: 14 days
Excerpt: SPF (specific pathogen free) grade, male ICR mice with body weights ranging from 19 to 21 g were obtained from the Laboratory Animal Quality Testing Center of Jilin Province. The ICR mice were divided into 7 groups as follows: the normal group, the model group, the cyclophosphamide (CTX) group, the ARG group, the high dose ARG-V group, the middle dose ARG-V group and the low dose ARG-V group. H22 hepatocarcinoma cells were purchased from the Institute of Biochemistry and Cell Biology, CAS.
(§1) To prepare the ascitic tumour-bearing model, 0.2 mL of the cell suspension (1 × 10^5 cells/mouse) was injected into the shoulder of the right limb subcutaneously in each mouse. Twenty-four hours after the tumour inoculation with H22 cells, the ICR mice were divided into 7 groups as follows: the normal group, the model group, the cyclophosphamide (CTX) group, the ARG group, the high dose ARG-V group, the middle dose ARG-V group, and the low dose ARG-V group. The positive control group received CTX at a dosage of 25 mg/kg by intraperitoneal injection. The model group and the normal group were treated with the same amount of normal saline by P.O. once a day. The mice were given an ARG suspension solution mixed with sodium carboxymethyl cellulose at a daily dose of 40 mg/kg, and ARG-V dissolved in saline at different dosages was administered orally. The mice in each group were treated continuously for 14 days. Before and after each drug administration, the size of the tumours were measured, and the weights of the mice were recorded. Twenty-four hours after the last administration, the mice were killed by cervical dislocation, and blood samples were collected from the eyes of the mice. The tumour, spleen, and thymus of the mice were taken out and weighed on an electronic balance.

H22 tumour-bearing mice = test: Serum ALT, AST, BUN and CRE in H22 tumour-bearing mice; settings: for BUN / CRE: Fig. 2(b); for Serum ALT / Serum AST: Fig. 2(a)
Experimental: as §1
AST and ALT are clinical indexes of liver function, used in medicine to judge whether the liver is damaged. BUN and CRE are used to judge whether the kidney is damaged. They were analysed by a commercially available reagent kit according to the instructions.

[4] = Pharmacokinetics after oral (intragastric) administration to rats, plasma ARG by HPLC, 3P97 fit; format: in vivo, Wistar rats; settings: for AUC / CL/F(s): intragastric, X ± SD, n = 6; for AUC value: oral
Experimental: Male Wistar rats (8 weeks, 230–250 g) were purchased from Liaoning Changsheng Biotechnology Co., Ltd. (Certificate No. SCXK-2015-0001) and acclimated to the laboratory environment for 1 week.
After the frozen plasma thawed, a 0.2 mL rat plasma sample was placed in an Eppendorf tube containing 5 µL of the IS working solution and 1 mL of acetonitrile with 0.1% formic acid and mixed evenly with a turbine mixer for 3 minutes. It was then separated by centrifugation (12000 rpm, 10 min, 4 °C). The supernatant was withdrawn and evaporated to dryness under N2. The dry residue was reconstituted by mixing it with 50 μL of acetonitrile for 1 minute and separated by centrifugation (16000 rpm, 5 min, 4 °C), and a 20 μL aliquot was injected into the HPLC system for analysis.
The rats received ARG and ARG-V by oral administration. Blood samples were obtained via the oculi chorioideae vein before oral administration and at 1, 3, 5, 10, 15, 30, 45, 60, 90, 120, 150, 180, 240, and 360 min after administration. The whole blood samples were separated by centrifugation (8000 rpm, 10 min), and the plasma was obtained and stored at −20 °C until analysis.
Analytes were separated on a Thermo BDS HYPERSIL C18 column (4.6 × 250 mm, 5 μm) at a flow rate of 1.0 mL/min. The column was maintained at 30 °C. The mobile phase consisted of acetonitrile and 0.1% formic acid water (45:55 v/v). Detection was done at a wavelength of 280 nm.
The values are presented as the mean ± standard deviation (SD). The concentration-time curve was drawn, and data were processed using the 3P97 software.

[5] = Stability of ARG QC samples in rat plasma; format: in vitro ADME; settings: three concentrations; room temperature 12 hours, −20 °C for a month, three freeze-thaw cycles
Experimental: The ARG stock solution was diluted with plasma to make quality control (QC) samples, and the QC samples were prepared at three concentrations of low, medium and high (0.02, 0.1, and 2 μg/mL). The QC samples were kept at room temperature for 12 h, and freeze-thaw cycles were repeated 3 times. The QC samples were kept at −20 °C for 30 days.

Beagle dogs = tested on: Beagle dogs; design: method as in earlier work; settings: cited from earlier work
[6] = design: method as in PMID 27685612; settings: patients with advanced pancreatic cancer refractory to gemcitabine; second peaks indicate enterohepatic circulation; cited from earlier work
[7] = tested on: serum cytokines TNF-α, IL-2, VEGF; test: Serum cytokines (TNF-α, IL-2, VEGF) by ELISA in H22 tumour-bearing mice; format: in vivo, ICR mice; settings: for Expression level of IL-2: compared to the tumour model group; for Expression level of IL-2 / Serum TNF-α level: Fig. 2(c); for Serum VEGF: Fig. 2(d)
Experimental: as §1
The serum levels of the cytokines IL-2, IL-6, VEGF and TNF-α were analysed using a commercially available ELISA kit according to the manufacturer’s instruction.

[8] = concentration 0.125 mg/mL, in % (unit assumed)
[9] = concentration 0.25 mg/mL, in % (unit assumed)
[10] = concentration 0.5 mg/mL, in % (unit assumed)
[11] = concentration 1 mg/mL, in % (unit assumed)
[12] = concentration 2 mg/mL, in % (unit assumed)
[13] = concentration 4 mg/mL, in % (unit assumed)
[14] = 40 mg/kg oral daily, mean ± SD, n = 8
[15] = first of three concentrations (low dosage)
[16] = second of three concentrations (middle dosage)
[17] = third of three concentrations (high dosage)
[18] = 25 mg/kg intraperitoneal, mean ± SD, n = 8

SMILES | Solubility in Acetonitrile [1] | Solubility in Acetonitrile:water 45:55 [1] | Solubility in Cloroform [1] | Solubility in Ethyl acetate [1] | Solubility in Water [1] | IC50 (nitrite scavenging) [2] [µg/mL] | Clearance rate on nitrite [2, 8] | Clearance rate on nitrite [2, 9] | Clearance rate on nitrite [2, 10] | Clearance rate on nitrite [2, 11] | Clearance rate on nitrite [2, 12] | Clearance rate on nitrite [2, 13] | Inhibitory rate ([3]; 40 mg/kg oral daily) | Tumor weight [3, 14] | BUN (H22 tumour-bearing mice; compared to the CTX group) | Serum ALT (H22 tumour-bearing mice; compared to the model group) | Serum AST (H22 tumour-bearing mice; compared to the model group) | AUC value [4, 15] [ng·h/mL] | AUC value [4, 16] [ng·h/mL] | AUC value [4, 17] [ng·h/mL] | further results
COc1cc(C[C@H]2C(=O)OC[C@@H]2Cc2ccc(OC)c(OC)c2)ccc1O [ARG, Arctigenin] | very soluble | very soluble | freely soluble | freely soluble | almost insoluble | 17490 (≈ 47 mM) | 17.60 ± 0.02 | 23.41 ± 0.02 | 27.72 ± 0.03 | 31.09 ± 0.02 | 34.46 ± 0.02 | 39.14 ± 0.07 | 26.26% | 1.32 ± 0.34 g | no significant difference | decreased | decreased | 228 | 316 | 424 | CRE (H22 tumour-bearing mice; compared to the CTX group): no significant difference; AUC ([4]; high dosage): 25419.859 ± 5497.001 (ng/mL)*min; CL/F(s) ([4]; high dosage): 0.009 ± 0.003 mg/kg/min/(ng/mL); AUC ([4]; low dosage): 13687.547 ± 3050.502 (ng/mL)*min; CL/F(s) ([4]; low dosage): 0.004 ± 0.001 mg/kg/min/(ng/mL); AUC ([4]; middle dosage): 18971.963 ± 5515.267 (ng/mL)*min; CL/F(s) ([4]; middle dosage): 0.006 ± 0.003 mg/kg/min/(ng/mL); Stability in rat plasma QC samples [5]: good results; Toxicity in Beagle dogs (Beagle dogs; 60 mg/kg group, subcutaneous injection, except the stimulus response at the administration location): no overt toxicity; Toxicity in Beagle dogs (Beagle dogs; repeated subcutaneous injection of large doses): can induce injury to the liver and biliary duct; Form of ARG in patients [6]: exists as arctigenin glucuronide (AGG)
O=C1O[C@H]([C@@H](O)CO)C(O)=C1O [VC] | – | – | – | – | – | 690 (≈ 3.92 mM) | – | – | – | – | – | – | – | – | – | – | – | – | – | – | Clearance rate on nitrite ([2]; concentration 0.125 mg/mL): 7.30 ± 0.06; Clearance rate on nitrite ([2]; concentration 0.25 mg/mL): 17.23 ± 0.00; Clearance rate on nitrite ([2]; concentration 0.5 mg/mL): 25.84 ± 0.03; Clearance rate on nitrite ([2]; concentration 1 mg/mL): 54.49 ± 0.02; Clearance rate on nitrite ([2]; concentration 2 mg/mL): 96.32 ± 0.00; Clearance rate on nitrite ([2]; concentration 4 mg/mL): 97.75 ± 0.00
COc1ccc(CC2COC(=O)C2Cc2ccc(OC(=O)C(N)C(C)C)c(OC)c2)cc1OC (stereo not drawn) [ARG-V] | slight soluble | very soluble | freely soluble | almost insoluble | freely soluble | 2190 (≈ 4.64 mM) | 20.22 ± 0.00 | 27.90 ± 0.05 | 35.21 ± 0.07 | 45.51 ± 0.01 | 64.04 ± 0.01 | 69.10 ± 0.04 | 69.2% and 69.27% | 0.55 ± 0.15^**,aa g | significant difference | decreased | decreased | 253 | 391 | 574 | Increase of nitrite removal ability compared with ARG ([2]; concentration 4 mg/mL): more than 75%; Inhibitory rate ([3]; 20 mg/kg oral daily): 42.46%; Tumor weight ([3]; 20 mg/kg oral daily, mean ± SD, n = 8): 1.03 ± 0.19^**,##,a g; Inhibitory rate ([3]; 80 mg/kg oral daily): 63.13%; Tumor weight ([3]; 80 mg/kg oral daily, mean ± SD, n = 8): 0.66 ± 0.17^**,#,aa g; BUN (H22 tumour-bearing mice; compared to the model group): decreased significantly; CRE (H22 tumour-bearing mice; compared to the model group): decreased significantly; Expression level of IL-2 [7]: significantly higher; Serum VEGF ([7]; compared with the model group): decreased; Serum TNF-α level ([7]; three doses, compared with the CTX group): increased significantly
O=P1(N(CCCl)CCCl)NCCCO1 (stereo not drawn) [CTX, Cyclophosphamide] | – | – | – | – | – | – | – | – | – | – | – | – | – | – | – | obviously increased | obviously increased | – | – | – | Increase of body weight ([3]; 25 mg/kg intraperitoneal): 4.37 g; Inhibitory rate ([3]; 25 mg/kg intraperitoneal): 72.06%; Spleen index [3, 18]: 4.40 ± 0.40 mg/g; Thymus index [3, 18]: 1.24 ± 0.20 mg/g; Tumor weight [3, 18]: 0.50 ± 0.11 g; Expression level of IL-2 [7]: obviously decreased; Serum TNF-α level ([7]; compared with the model group): significantly decreased; Serum VEGF ([7]; compared with the model group): decreased significantly
